Laboratory results: article PMC8778818, “Synthesis, Structural Characterization and Anticancer Activity of New 5-Trifluoromethyl-2-thioxo-thiazolo[4,5-d]pyrimidine Derivatives” (Pharmaceuticals, 2022)

Experiments:
[1] = test system: CCRF-CEM; test: NCI-60 screen, Leukemia CCRF-CEM; format: cell-based, human
[2] = test system: HCT-116; test: NCI-60 screen, Colon Cancer HCT-116; format: cell-based, human
[3] = test system: MOLT-4; test: NCI-60 screen, Leukemia MOLT-4; format: cell-based, human
[4] = test system: NCI-H522; test: NCI-60 screen, Non-Small Cell Lung Cancer NCI-H522; format: cell-based, human
[5] = test system: HaCaT; test: MTT cell viability assay, HaCaT; format: cell-based, human; conditions: Homo sapiens; HaCaT normal cells, MTT, 72 h, mean ± SD
Method: Twelve compounds (2a-e, 3a-d and 4a-c) at a concentration range of 50–5000 μM were tested for their antiproliferative potential against four human cancer cell lines (A375—melanotic melanoma, C32—amelanotic melanoma, DU145—prostate cancer androgen-independent, MCF-7/WT—breast adenocarcinoma) and two normal cell lines: Chinese Hamster Ovary (CHO-K1) and immortalized human keratinocytes from histologically normal skin (HaCaT).
To determine the antiproliferative activity of newly synthesized compounds, the following cell lines were used: human melanotic melanoma cell line (A375), human amelanotic melanoma cell line (C32), human breast adenocarcinoma cell line (MCF-7/WT), human prostate cancer androgen-independent (DU145) and two normal cell lines: hamster ovarian (CHO-K1) and immortalized human keratinocytes from histologically normal skin (HaCaT). The cells were obtained from the cell line bank of the Department of Molecular and Cellular Biology, Wroclaw Medical University. A375, C32, MCF-7/WT, DU145 and HaCaT cells were grown in a monolayer cultured in Dulbecco’s Modified Eagle’s Medium (DMEM, Sigma-Aldrich, Poznań, Poland), supplemented with 10% of fetal bovine serum (FBS, Gibco, Paisley, UK) and 1% of antibiotics (penicillin/streptomycin, Sigma-Aldrich) and CHO-K1 were grown in HAM’s F-12 medium (Sigma-Aldrich), supplemented with 10% fetal bovine serum (FBS, Gibco) and 1% of antibiotics (penicillin/streptomycin, Sigma-Aldrich). Cell lines were cultured in the polystyrene flasks 25 or 75 cm^2 (Thermo Fisher Scientific, Waltham, MA, USA), which were stored in 37 °C and 5% CO2 in a humidified 95% atmosphere (SteriCult, Thermo Scientific, Alab). The cell medium was exchanged twice a week. The exponentially growing cells were used throughout the experiments. The cells were rinsed with phosphate-buffered saline (PBS, Sigma-Aldrich) and trypsinized by Trypsin-EDTA 0.25% solution (Sigma-Aldrich).
The influence of the compounds was performed in a monolayer culture on cancer and normal cells. Compounds were initially dissolved in DMSO; further dilutions of the compound were performed in Dulbecco’s Modified Eagle’s Medium supplemented with 10% FBS. Compounds were tested in a 50–5000 µM concentration range. In the in vitro experiments, the concentrations of DMSO in the final solution of the compounds were used 0.05%; 0.1%; 0.5%; 1%, respectively.
Cell viability was determined using the MTT colorimetric assay. All cell lines were seeded into 96-well plates to a density of 3 × 10^4 cells/well. After 24 h, the culture supernatants were removed and appropriate dilutions of compounds in the culture medium (200 µL/well) were added to the cells’ monolayer cultures and incubated for an additional 72 h. After 72 h of exposition to the compounds and the removal of the culture medium, cell viability was determined by reducing the yellow dye 3-(4,5-dimethyl-2-thiazol)-2,5-diphenyl-2H-tetrazolium bromide (MTT assay, Sigma Saint Louis, MO, USA; In Vitro Toxicology Assay) to a blue formazan product. The absorbance of the resulting solutions in three duplicate experiments was measured at the wavelength of 560 nm in a microplate reader (EnSpire, Perkin Elmer, Kraków, Poland). MTT assay is a colorimetric method that estimates the rate of metabolism in viable cells. Absorbance is directly proportional to the number of viable cells. All the experiments were performed three times and the mean absorbance values were calculated. The methodology for the evaluation of the growth of human cancer and normal cells was described previously. The cell viability in each group was expressed as a percentage of control (untreated) cells.

[6] = test system: OVCAR-5; test: NCI-60 screen, Ovarian Cancer OVCAR-5; format: cell-based, human
[7] = test system: SNB-75; test: NCI-60 screen, CNS Cancer SNB-75; format: cell-based, human; conditions: SNB-75, five doses 10^−4–10^−8 M
[8] = test system: BT-549; test: NCI-60 screen, Breast Cancer BT-549; format: cell-based, human
[9] = test system: SF-295; test: NCI-60 screen, CNS Cancer SF-295; format: cell-based, human; conditions: SF-295, five doses 10^−4–10^−8 M
[10] = test system: T-47D; test: NCI-60 screen, Breast Cancer T-47D; format: cell-based
[11] = test system: HOP-92; test: NCI-60 screen, Non-Small Cell Lung Cancer HOP-92; format: cell-based, human
[12] = test system: OVCAR-8; test: NCI-60 screen, Ovarian Cancer OVCAR-8; format: cell-based, human
[13] = test system: OVCAR-4; test: NCI-60 screen, Ovarian Cancer OVCAR-4; format: cell-based, human
[14] = test system: SN12C; test: NCI-60 screen, Renal Cancer SN12C; format: cell-based
[15] = test system: SW620; test: NCI-60 screen, Colon Cancer SW620; format: cell-based, human
[16] = test system: LOX IMVI; test: NCI-60 screen, Melanoma LOX IMVI; format: cell-based, human
[17] = test system: SR; test: NCI-60 screen, Leukemia SR; format: cell-based, human; conditions: five doses 10^−4–10^−8 M
[18] = test system: HL-60(TB); test: NCI-60 screen, Leukemia HL-60(TB); format: cell-based, human
[19] = test system: CAKI-1; test: NCI-60 screen, Renal Cancer CAKI-1; format: cell-based, human
[20] = test system: TK-10; test: NCI-60 screen, Renal Cancer TK-10; format: cell-based, human
[21] = test system: NCI-H460; test: NCI-60 screen, Non-Small Cell Lung Cancer NCI-H460; format: cell-based, human
[22] = Homo sapiens, five doses 10^−4–10^−8 M
[23] = Homo sapiens, five doses 10^−4–10^−8 M, read-out: log LC50 (the source's name) (converted)
[24] = Homo sapiens, MOLT-4, five doses 10^−4–10^−8 M
[25] = Homo sapiens, NCI-H522, five doses 10^−4–10^−8 M
[26] = Homo sapiens, HOP-92, five doses 10^−4–10^−8 M
[27] = Homo sapiens, SW-620, SW620, five doses 10^−4–10^−8 M

FC(F)(F)c1nc(Cl)c2sc(=S)n(-c3ccccc3)c2n1 [Compound 3b, 7-chloro-3-phenyl-5-(trifluoromethyl)[1, 3]thiazolo[4,5-d]pyrimidine-2(3H)-thione]
Growth of Cells (%) ([1]; 10^−5 M one dose): −51.41%
GI50 [1, 22]: 0.933 µM
CC50 [1, 23]: > 100 µM
log TGI ([1]; five doses 10^−4–10^−8 M): −5.50 log M
Growth of Cells (%) ([2]; HCT-116, 10^−5 M one dose): −27.21%
log TGI ([2]; HCT-116, five doses 10^−4–10^−8 M): −5.47 log M
GI50 ([2]; Homo sapiens, HCT-116, five doses 10^−4–10^−8 M): 1.74 µM
CC50 ([2]; Homo sapiens, HCT-116, five doses 10^−4–10^−8 M, read-out: log LC50 (the source's name) (converted)): 6.61 µM
GI50 [3, 24]: 3.09 µM
LC50 [3, 24]: > 100 µM
Growth of Cells (%) ([3]; MOLT-4, 10^−5 M one dose): −27.71%
log TGI ([3]; MOLT-4, five doses 10^−4–10^−8 M): −5.07 log M
GI50 [4, 25]: 0.204 µM
LC50 [4, 25]: 1.51 µM
Growth of Cells (%) ([4]; NCI-H522, 10^−5 M one dose): −67.57%
log TGI ([4]; NCI-H522, five doses 10^−4–10^−8 M): −6.33 log M
IC50 [5]: 33.5 ± 0.7 µM
GI50 ([6]; Homo sapiens, OVCAR-5, five doses 10^−4–10^−8 M): 8.71 µM
CC50 ([6]; Homo sapiens, OVCAR-5, five doses 10^−4–10^−8 M, read-out: log LC50 (the source's name) (converted)): 64.6 µM
Growth of Cells (%) ([6]; OVCAR-5, 10^−5 M one dose): 86.56%
log TGI ([6]; OVCAR-5, five doses 10^−4–10^−8 M): −4.60 log M
GI50 ([7]; Homo sapiens): 2 µM
LC50 ([7]; Homo sapiens): 8.91 µM
log TGI [7]: −5.38 log M
Growth of Cells (%) ([8]; BT-549, 10^−5 M one dose): 73.90%
log TGI ([8]; BT-549, five doses 10^−4–10^−8 M): −5.50 log M
GI50 ([8]; Homo sapiens, BT-549, five doses 10^−4–10^−8 M): 1.51 µM
CC50 ([8]; Homo sapiens, BT-549, five doses 10^−4–10^−8 M, read-out: log LC50 (the source's name) (converted)): 6.76 µM
GI50 ([9]; Homo sapiens): 12.3 µM
LC50 ([9]; Homo sapiens): 52.5 µM
log TGI [9]: −4.59 log M
GI50 ([10]; Homo sapiens, T47D, read-out: log GI50 (converted)): 1.86 µM
CC50 ([10]; Homo sapiens, T47D, T-47D, five doses 10^−4–10^−8 M, read-out: log LC50 (the source's name) (converted)): 66.1 µM
Growth of Cells (%) ([10]; T-47D, 10^−5 M one dose): −35.57%
log TGI ([10]; T-47D, five doses 10^−4–10^−8 M): −5.32 log M
Growth of Cells (%) ([11]; HOP-92, 10^−5 M one dose): −21.23%
log TGI ([11]; HOP-92, five doses 10^−4–10^−8 M): −5.56 log M
GI50 [11, 26]: 1.26 µM
LC50 [11, 26]: 5.89 µM
GI50 ([12]; Homo sapiens, OVCAR-8, five doses 10^−4–10^−8 M): 1.95 µM
CC50 ([12]; Homo sapiens, OVCAR-8, five doses 10^−4–10^−8 M, read-out: log LC50 (the source's name) (converted)): > 100 µM
Growth of Cells (%) ([12]; OVCAR-8, 10^−5 M one dose): 4.40%
log TGI ([12]; OVCAR-8, five doses 10^−4–10^−8 M): −5.27 log M
GI50 ([13]; Homo sapiens, OVCAR-4, five doses 10^−4–10^−8 M): 1.78 µM
CC50 ([13]; Homo sapiens, OVCAR-4, five doses 10^−4–10^−8 M, read-out: log LC50 (the source's name) (converted)): 7.24 µM
Growth of Cells (%) ([13]; OVCAR-4, 10^−5 M one dose): 23.73%
log TGI ([13]; OVCAR-4, five doses 10^−4–10^−8 M): −5.44 log M
Growth of Cells (%) ([14]; 10^−5 M one dose): 85.61%
CC50 [14, 23]: 40.7 µM
GI50 ([14]; Homo sapiens, read-out: log GI50 (converted)): 3.55 µM
log TGI ([14]; five doses 10^−4–10^−8 M): −4.88 log M
GI50 [15, 27]: 2.14 µM
LC50 (50% lethal concentration) [15, 27]: 21.4 µM
Growth of Cells (%) ([15]; SW620, 10^−5 M one dose): −63.05%
log TGI ([15]; SW620, five doses 10^−4–10^−8 M): −5.32 log M
Growth of Cells (%) ([16]; 10^−5 M one dose): 3.11%
GI50 [16, 22]: 1.78 µM
LC50 [16, 22]: 6.17 µM
log TGI ([16]; five doses 10^−4–10^−8 M): −5.48 log M
GI50 ([17]; Homo sapiens): 0.437 µM
CC50 ([17]; Homo sapiens, read-out: log LC50 (the source's name) (converted)): > 100 µM
log TGI [17]: −5.70 log M
Growth of Cells (%) ([18]; 10^−5 M one dose): −41.20%
GI50 [18, 22]: 1.55 µM
log TGI ([18]; five doses 10^−4–10^−8 M): −5.41 log M
Growth of Cells (%) ([19]; CAKI-1, 10^−5 M one dose): 81.74%
log TGI ([19]; CAKI-1, five doses 10^−4–10^−8 M): −5.51 log M
GI50 ([19]; Homo sapiens, CAKI-1, five doses 10^−4–10^−8 M): 1.66 µM
CC50 ([19]; Homo sapiens, CAKI-1, five doses 10^−4–10^−8 M, read-out: log LC50 (the source's name) (converted)): 5.75 µM
GI50 ([20]; Homo sapiens, TK-10, five doses 10^−4–10^−8 M): 2 µM
CC50 ([20]; Homo sapiens, TK-10, five doses 10^−4–10^−8 M, read-out: log LC50 (the source's name) (converted)): 8.32 µM
Growth of Cells (%) ([20]; TK-10, 10^−5 M one dose): 51.24%
log TGI ([20]; TK-10, five doses 10^−4–10^−8 M): −5.39 log M
GI50 ([21]; Homo sapiens, NCI-H460, five doses 10^−4–10^−8 M): 3.24 µM
CC50 ([21]; Homo sapiens, NCI-H460, five doses 10^−4–10^−8 M, read-out: log LC50 (the source's name) (converted)): 50.1 µM
Growth of Cells (%) ([21]; NCI-H460, 10^−5 M one dose): 68.89%
log TGI ([21]; NCI-H460, five doses 10^−4–10^−8 M): −4.99 log M
